Results reported in ChEMBL document CHEMBL1129927, “Further evidence for a dopamine reuptake pharmacophore. The effect of N-methylation on Threo-methylphenidate and its analogs” (Bioorg Med Chem Lett, 1997).

Assays:
[1] = target: Sodium-dependent dopamine transporter (Rattus norvegicus, UniProt P23977); experiment: The compound was tested for its affinity at the rat striatal dopamine transporter by the displacement of [3H]WIN-35428
[2] = Hill coefficient was determined
[3] = Ratio of inhibitory concentration of compound 5d to 6d

Sequence of Sodium-dependent dopamine transporter (P23977 whole entry): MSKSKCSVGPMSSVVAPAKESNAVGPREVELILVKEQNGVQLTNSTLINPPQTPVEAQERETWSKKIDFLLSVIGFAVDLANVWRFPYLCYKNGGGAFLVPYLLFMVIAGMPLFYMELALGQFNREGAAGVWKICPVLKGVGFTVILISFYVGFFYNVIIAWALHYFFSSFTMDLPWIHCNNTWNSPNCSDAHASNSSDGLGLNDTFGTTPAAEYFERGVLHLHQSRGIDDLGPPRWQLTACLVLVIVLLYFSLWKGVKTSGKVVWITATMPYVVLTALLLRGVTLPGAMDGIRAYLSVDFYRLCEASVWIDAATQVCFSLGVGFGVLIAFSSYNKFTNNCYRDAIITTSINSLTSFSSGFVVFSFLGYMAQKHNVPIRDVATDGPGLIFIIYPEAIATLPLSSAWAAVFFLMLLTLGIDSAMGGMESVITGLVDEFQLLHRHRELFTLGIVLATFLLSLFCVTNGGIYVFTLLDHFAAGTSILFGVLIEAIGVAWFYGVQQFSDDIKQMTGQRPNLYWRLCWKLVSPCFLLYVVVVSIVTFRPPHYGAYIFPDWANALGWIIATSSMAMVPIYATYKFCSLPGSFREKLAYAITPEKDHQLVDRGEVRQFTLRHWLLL

**Q.** What does the source list for `COC(=O)[C@H](c1ccccc1)[C@H]1CCCCN1C`?
**A.** IC50 [1]: 500 nM; Hill coefficient [2]: 1

**Q.** For `COC(=O)[C@H](c1ccccc1)[C@H]1CCCCN1`, which Hill coefficient [2] is on record?
**A.** The Hill coefficient was 0.9.

**Q.** Which results are given for `COC(=O)[C@H](c1cccc(Cl)c1)C1CCCCN1` (stereo not given in full)?
**A.** IC50 [1]: 5.1 nM; Hill coefficient [2]: 0.95

**Q.** For `COC(=O)[C@H](c1cccc(C)c1)[C@H]1CCCCN1C`, which IC50 [1] is on record?
**A.** The IC50 was 108 nM.

**Q.** And the Hill coefficient [2]?
**A.** The Hill coefficient was 1.

**Q.** Which IC50 [1] does the source give for `COC(=O)[C@H](c1cccc(C)c1)[C@H]1CCCCN1` here?
**A.** The IC50 was 21.4 nM.

**Q.** What about the Hill coefficient [2] of the same compound?
**A.** Its Hill coefficient is 1.01.

**Q.** What does the source list for `COC(=O)[C@H](c1cccc(Cl)c1)[C@H]1CCCCN1C`?
**A.** IC50 [1]: 161 nM; Hill coefficient [2]: 0.96

**Q.** With `COC(=O)[C@H](c1ccc(O)cc1)[C@H]1CCCCN1C` as the compound, how does the IC50 [1] read?
**A.** Its IC50 is 1220 nM.

**Q.** And the Hill coefficient [2]?
**A.** Its Hill coefficient is 1.06.

**Q.** For `COC(=O)[C@H](c1ccc(C)cc1)C1CCCCN1` (stereo not given in full), which IC50 [1] is on record?
**A.** The IC50 was 33 nM.

**Q.** And the Hill coefficient [2]?
**A.** Its Hill coefficient is 1.05.

**Q.** What about the Ratio [3] of the same compound?
**A.** Its Ratio is 4.2.

**Q.** Which results are given for `COC(=O)[C@H](c1ccc(O)cc1)[C@H]1CCCCN1`?
**A.** IC50 [1]: 98 nM; Hill coefficient [2]: 1.07

**Q.** Which results are given for `COC(=O)[C@H](c1ccc(C)cc1)[C@H]1CCCCN1C`?
**A.** IC50 [1]: 139 nM; Hill coefficient [2]: 1.03
